Measured values reported in patent US6395286B1, “Cosmetic compositions containing anise extract and retinoids” (Unilever Home & Personal Care USA, division of Conopco, Inc., priority 1999, dated 2002).

Tested on: CRABP-2 expression of fibroblasts
Experiment: CRABP-2 protein expression in fibroblasts (Western blot, densitometric scanning)
Assay type: cell-based, Human
Settings: for CRABP-2 levels: 4 h anise pre-treatment, 48 h incubation, +/− SD of triplicates; for As % of control: control as 100%
Description: Dried […] seeds (Pimpinella anisum) was purchased from local markets and powdered in a dry grinder. The alcoholic extract of anise seed was prepared by stirring 1 gram of the dry anise seed powder in 10 ml of ethanol from the list of solvents given below for 4 to 24 hrs at room temperature. The extracts were clarified by filtration and centrifugation, to obtain a 10% extract of anise seed in the particular solvent. Human adult fibroblasts obtained from sun-protected inner arm of 25-30 year […] volunteer were used in this. Cells were grown in 1:1 DMEM/Hams F12 media containing 10% FBS, maintained at 37C in a 5% CO2 atmosphere under normal atmospheric oxygen tension. Third passage adult fibroblasts were grown in DMEM media with 10% FBS in 12-well plates at a seeding density of 40,000 cells/ml/well. The cells at 80% confluence were rinsed in serum free and phenol red free (PRF) DMEM media twice. Pre-treatment with anise seed extract for 4 hours was conducted and then dosed with retinoids and was incubated for 48 hours. After the incubation, the wells were washed twice with 1×PBS and the cell monolayer was harvested in 100 μl cell lysis buffer (contains 1×PBS, 1% TritonX, 0.5% sodium deoxycholate, 0.1% SDS containing protease inhibitor (10 mg/ml PMSF in isopropanol, 10 μl/ml). The suspension was spun at 14000 rpm for 10 minutes, the supernatant collected and an aliquot of this supernatant was used for protein quantification. Protein concentration was determined using Pierce protein kit. The remainder of 100 μl supernatant (cell lysate) was denatured in a mixture of 40 μl sample buffer (NOVEX) and 0.5% Beta mercaptoethanol (BME) and by boiling the sample for 5 minutes. Equal amount of protein was then loaded onto 16% Tris-glycine gels for protein analysis by SDS page and Western Immuno-blotting for CRABP-2 protein expression. To measure the levels of CRABP-2 in the fibroblasts prepared as described above, the cell supernatant was re-suspended in 4× sample buffer and 0.5% BME, boiled for 5 minutes and used for western blotting. Equal amounts of protein were loaded onto 16% Tris-glycine gels for CRABP-2 protein analysis by SDS page and Western Immuno-blotting. The gels were transferred to nitrocellulose blots and Western Blotting was carried out using monoclonal antibodies to CRABP-2 according to standard procedures. The CRABP-2 protein band was visualized in the Western Blots using the chemiluminescence system obtained from Santa Cruz Biotechnology (SantaCruz, Calif.). The bands in the film were quantitated by densitometric scanning, the data from triplicate samples were calculated as % of control and expressed in the following tables as % increase over control (with control as 100%) +/−SD of triplicates.

[1] = Example 1: 100 nM retinoids and 0.1 μl of a 10% anise seed extract
[2] = Example 2: 100 nM retinoids and 1.0 μl of a 10% anise seed extract
[3] = Example 3: 500 nM retinoids and 0.1 μl of a 10% anise seed extract
[4] = Example 4: 500 nM retinoids and 1.0 μl of a 10% anise seed extract

In the case of CCCCCCCCCCCCCCCC(=O)OC/C=C(C)/C=C/C=C(C)/C=C/C1=C(C)CCCC1(C)C [Retinyl Palmitate], the CRABP-2 levels [1] is reported as 1.12 +/− 0.15, the “As % of control” value [1] is reported as 262 +/− 37 % of control and the CRABP-2 levels [2] is reported as 1.12 +/− 0.15. For the same molecule, the “As % of control” value [2] was 262 +/− 37 % of control, the CRABP-2 levels [3] was 0.83 +/− 0.5 and the “As % of control” value [3] was 193 % of control. The CRABP-2 levels [4] was 0.83 +/− 0.5 and the “As % of control” value [4] was 193 % of control.
CCCCC/C=C\C/C=C\CCCCCCCC(=O)OC/C=C(C)/C=C/C=C(C)/C=C/C1=C(C)CCCC1(C)C [Retinyl linoleate] was tested, and the CRABP-2 levels [1] was 1.23 +/− 0.28, the “As % of control” value [1] was 286 +/− 65 % of control and the CRABP-2 levels [2] was 1.23 +/− 0.28. The “As % of control” value [2] was 286 +/− 65 % of control, the CRABP-2 levels [3] was 0.99 +/− 0.13 and the “As % of control” value [3] was 231 +/− 30 % of control. The CRABP-2 levels [4] was 0.99 +/− 0.13 and the “As % of control” value [4] was 231 +/− 30 % of control.
For CC1=C(/C=C/C(C)=C/C=C/C(C)=C/CO)C(C)(C)CCC1 [Retinol], the CRABP-2 levels [1] was 1.36 +/− 0.17, the “As % of control” value [1] was 317 +/− 39 % of control and the CRABP-2 levels [2] was 1.36 +/− 0.17. For the same molecule, the “As % of control” value [2] was 317 +/− 39 % of control, the CRABP-2 levels [3] was 0.66 +/− 0.19 and the “As % of control” value [3] was 154 +/− 44 % of control. For the same molecule, the CRABP-2 levels [4] was 0.66 +/− 0.19 and the “As % of control” value [4] was 154 +/− 44 % of control.
For CC(=O)OC/C=C(C)/C=C/C=C(C)/C=C/C1=C(C)CCCC1(C)C [Retinyl acetate], the CRABP-2 levels [1] was 2.38 +/− 0.81, the “As % of control” value [1] was 553 % of control and the CRABP-2 levels [2] was 2.38 +/− 0.81. The “As % of control” value [2] was 553 % of control, the CRABP-2 levels [3] was 1.02 +/− 0.56 and the “As % of control” value [3] was 237 % of control. For the same molecule, the CRABP-2 levels [4] was 1.02 +/− 0.56 and the “As % of control” value [4] was 237 % of control.
